According to BigSolDB 2.1:

C[C@@H]1O[C@@H](OC[C@H]2O[C@@H](Oc3c(-c4ccc(O)c(O)c4)oc4cc(O)cc(O)c4c3=O)[C@H](O)[C@@H](O)[C@@H]2O)[C@H](O)[C@H](O)[C@H]1O
solubility (mole fraction)
Settings	273.2 K	283.2 K	293.2 K	303.2 K	313.2 K	323.2 K
in ethanol	0.00348	0.00372	0.00427	0.00515	0.00592	0.00653
in water	2.97e-06	5.29e-06	5.87e-06	8.22e-06	1.02e-05	1.42e-05
